Where two headings read alike, the source gives them in different places.
Test system: T. brucei lysate proteins
Assay type: binding, Trypanosoma brucei

CCCCCCOc1cccc(Cc2cnc(N)nc2N)c1 [compound 2]
fold change (relative to vehicle control = 1, protein TB09.160.3270 ATP-DEPENDENT DEAD BOX HELICASE, PUTATIVE): 1 | fold change (relative to vehicle control = 1, protein TB09.160.4250 TR[…]): 0.99 | fold change (relative to vehicle control = 1, protein TB09.211.3540 GLYCEROL KINASE, GLYCOSOMAL): 0.98 | fold change (relative to vehicle control = 1, protein TB11.01.1290 14-3-3-I PROTEIN): 0.88 | fold change (relative to vehicle control = 1, protein TB11.02.0730 METACASPASE): 1.1 | fold change (relative to vehicle control = 1, protein TB11.02.4700 14-3-3 PROTEIN): 1 | fold change (relative to vehicle control = 1, protein TB11.03.0815 DYNEIN LIGHT CHAIN): 0.94 | fold change (relative to vehicle control = 1, protein TB11.50.0007 DYNEIN LIGHT CHAIN LC8, PUTATIVE): 0.99 | fold change (relative to vehicle control = 1, protein TB427TMP.01.1830 HY[…], CONSERVED): 1 | fold change (relative to vehicle control = 1, protein TB427TMP.01.6880 CYTOSOLIC COAT PROTEIN, PUTATIVE): 1 | fold change (relative to vehicle control = 1, protein TB427TMP.01.7490 HY[…], CONSERVED): 0.96 | fold change (relative to vehicle control = 1, protein TB427TMP.01.7530 HY[…], CONSERVED): 0.98 | fold change (relative to vehicle control = 1, protein TB427TMP.02.1460 HY[…], CONSERVED): 0.95 | fold change (relative to vehicle control = 1, protein TB427TMP.02.2120 NUCLEOPORIN 48): 0.94 | fold change (relative to vehicle control = 1, protein TB427TMP.02.2970 KINESIN, PUTATIVE): 0.89 | fold change (relative to vehicle control = 1, protein TB427TMP.02.3120 MALIC ENZYME, PUTATIVE): 0.98 | fold change (relative to vehicle control = 1, protein TB427TMP.02.4550 HY[…], CONSERVED): 0.99 | fold change (relative to vehicle control = 1, protein TB427TMP.02.5450 GLUCOSE-REGULATED PROTEIN 78, PUTATIVE): 0.98 | fold change (relative to vehicle control = 1, protein TB427TMP.02.5660 HY[…], CONSERVED): 0.85 | fold change (relative to vehicle control = 1, protein TB427TMP.03.0090 RIBOKINASE, PUTATIVE): 0.93 | fold change (relative to vehicle control = 1, protein TB427TMP.03.0460 HY[…], CONSERVED): 0.99 | fold change (relative to vehicle control = 1, protein TB427TMP.160.4770 PROTEIN KINASE, PUTATIVE): 1 | fold change (relative to vehicle control = 1, protein TB427TMP.160.4910 FLAVOPROTEIN MONOOXYGENASE, PUTATIVE): 0.93 | fold change (relative to vehicle control = 1, protein TB427TMP.18.0005 HY[…], CONSERVED): 0.95 | fold change (relative to vehicle control = 1, protein TB427TMP.39.0006 T[…] EIF2B DELTA SUBUNIT, PUTATIVE): 0.96 | fold change (relative to vehicle control = 1, protein TB427.01.4050 PROTEIN P[…] EF-HAND DOMAINS (PPEF)): 0.95 | fold change (relative to vehicle control = 1, protein TB427.03.3160 POLY(A) POLYMERASE): 0.78 | fold change (relative to vehicle control = 1, protein TB427.03.3560 HY[…], CONSERVED): 0.98 | fold change (relative to vehicle control = 1, protein TB427.03.5420 PROTEIN TRANSPORT PROTEIN SEC24): 0.94 | fold change (relative to vehicle control = 1, protein TB427.04.1510 PHOSPHOLIPID-TRA[…], PUTATIVE): 0.93 | fold change (relative to vehicle control = 1, protein TB427.05.1320 HY[…], CONSERVED): 0.93 | fold change (relative to vehicle control = 1, protein TB427.05.2320 HY[…], CONSERVED): 0.8 | fold change (relative to vehicle control = 1, protein TB427.05.300 THYMINE-7-HYDROXYLASE, PUTATIVE): 0.92 | fold change (relative to vehicle control = 1, protein TB427.05.3800 GLUTAMINE HYDROLYSING (NOT AMMONIA-DEPENDENT) […] PHOSPHATE SYNTHASE, PUTATIVE): 0.85 | fold change (relative to vehicle control = 1, protein TB427.06.2550 RNA-BINDING PROTEIN, PUTATIVE): 0.84 | fold change (relative to vehicle control = 1, protein TB427.06.3650 ADP-RI[…], PUTATIVE): 0.97 | fold change (relative to vehicle control = 1, protein TB427.06.3860 HY[…], CONSERVED): 0.94 | fold change (relative to vehicle control = 1, protein TB427.07.2570 MRNA […], PUTATIVE): 0.89 | fold change (relative to vehicle control = 1, protein TB427.08.3150 T-COMPLEX PROTEIN 1, GAMMA SUBUNIT, PUTATIVE): 0.92 | fold change (relative to vehicle control = 1, protein TB427.08.3490 HY[…], CONSERVED): 1.2 | fold change (relative to vehicle control = 1, protein TB427.08.5460 FLAGELLAR CALCIUM-BINDING PROTEIN): 0.93 | fold change (relative to vehicle control = 1, protein TB427.08.5760 HY[…], CONSERVED): 0.96 | fold change (relative to vehicle control = 1, protein TB427.08.6110 HY[…], CONSERVED): 0.87 | fold change (relative to vehicle control = 1, protein TB427.10.11930 NAD OR NADP DEPENDENT OXIDOREDUCTASE, PUTATIVE): 0.92 | fold change (relative to vehicle control = 1, protein TB427.10.13880 HY[…], CONSERVED): 0.96 | fold change (relative to vehicle control = 1, protein TB427.10.14140 PYRUVATE KINASE 1): 1.1 | fold change (relative to vehicle control = 1, protein TB427.10.14910 SA[…] GLYCOPROTEIN, PUTATIVE): 0.99 | fold change (relative to vehicle control = 1, protein TB427.10.15180 […] PROTEIN, PUTATIVE): 0.88 | fold change (relative to vehicle control = 1, protein TB427.10.2350 PYRUVATE DEH[…] E3 BINDING PROTEIN, PUTATIVE): 0.77 | fold change (relative to vehicle control = 1, protein TB427.10.4940 NUCLEAR DBF2-RELATED KINASE): 1 | fold change (relative to vehicle control = 1, protein TB427.10.7630 HY[…], CONSERVED): 1 | fold change (relative to vehicle control = 1, protein TB927.10.12840 MIT[…] PROTEIN, PUTATIVE): 0.98 | fold change (relative to vehicle control = 1, protein TB927.10.14980 INTR[…] PROTEIN IFT52, PUTATIVE): 0.98 | fold change (relative to vehicle control = 1, protein TB927.1.2400 ALPHA TUBULIN): 1 | fold change (relative to vehicle control = 1, protein TB927.10.4180 TFIIF-[…] PHOSPHATASE, PUTATIVE): 0.94 | fold change (relative to vehicle control = 1, protein TB927.10.5330 40S RIBOSOMAL PROTEIN S18, PUTATIVE): 0.96 | fold change (relative to vehicle control = 1, protein TB927.10.6670 DYNEIN LIGHT CHAIN, PUTATIVE): 0.94 | fold change (relative to vehicle control = 1, protein TB927.2.2440 […]-ATPASE SUBUNIT 6): 1.1 | fold change (relative to vehicle control = 1, protein TB927.3.1120 GTP-BINDING NUCLEAR PROTEIN RTB2, PUTATIVE): 0.95 | fold change (relative to vehicle control = 1, protein TB927.3.3490 HIGH MOBILITY GROUP PROTEIN, PUTATIVE): 0.99 | fold change (relative to vehicle control = 1, protein TB927.4.4650 […] SYNTHASE, PUTATIVE): 0.56 | fold change (relative to vehicle control = 1, protein TB927.4.5310 SERINE/THREONINE-PROTEIN KINASE A, PUTATIVE): 0.97 | fold change (relative to vehicle control = 1, protein TB927.5.1930 HY[…], CONSERVED): 0.99 | fold change (relative to vehicle control = 1, protein TB927.6.2200 HY[…], CONSERVED): 0.99 | fold change (relative to vehicle control = 1, protein TB927.6.4140 PAR[…] COMPONENT, PUTATIVE): 0.94 | fold change (relative to vehicle control = 1, protein TB927.7.2700 NADH-CYTOCHROME B5 REDUCTASE, PUTATIVE): 0.78 | fold change (relative to vehicle control = 1, protein TB927.7.4480 ADENOSINE 5'-[…], PUTATIVE): 0.99 | fold change (relative to vehicle control = 1, protein TB927.8.1510 ATP-DEPENDENT DEAD/H RNA HELICASE, PUTATIVE): 0.99 | fold change (vs vehicle control, protein ADENOSINE TRANSPORTER 1 (CZT00028614.1)): 1.29 | fold change (vs vehicle control, protein TB11.01.4370 HY[…], CONSERVED): 0.99 | fold change (vs vehicle control, protein TB11.02.1220 […] SUBUNIT 2): 0.97 | fold change (vs vehicle control, protein TB427TMP.01.1540 HY[…], CONSERVED): 1.1 | fold change (vs vehicle control, protein TB427TMP.01.5690 DRBD4): 0.99 | fold change (vs vehicle control, protein TB427TMP.01.8510 T-COMPLEX PROTEIN 1, ALPHA SUBUNIT, PUTATIVE): 0.81 | fold change (vs vehicle control, protein TB427TMP.02.5620 Tb427tmp.02.5620): 0.97 | fold change (vs vehicle control, protein TB427TMP.160.4240 […] PROTEIN-LIKE PROTEIN): 0.98 | fold change (vs vehicle control, protein TB427TMP.211.2730 GIM5A PROTEIN): 1.45 | fold change (vs vehicle control, protein TB427.03.4910 SIGNAL PEPTIDE PEPTIDASE, PUTATIVE): 1 | fold change (vs vehicle control, protein TB427.05.2890 HY[…], CONSERVED): 0.9 | fold change (vs vehicle control, protein TB427.05.3170 RIBOSE-PHOSPHATE PYROPHOSPHOKINASE, PUTATIVE): 1.2 | fold change (vs vehicle control, protein TB427.06.3630 SPHINGOSINE 1-PHOSPHATE LYASE, PUTATIVE): 0.97 | fold change (vs vehicle control, protein TB427.06.4770 HY[…], CONSERVED): 1 | fold change (vs vehicle control, protein TB427.08.550 PEPTIDE […] REDUCTASE, PUTATIVE): 0.93 | fold change (vs vehicle control, protein TB427.10.1170 INTR[…] PROTEIN IFT172, PUTATIVE): 0.83 | fold change (vs vehicle control, protein TB427.10.13660 HY[…], CONSERVED): 0.93 | fold change (vs vehicle control, protein TB427.10.14550 ATP-DEPENDENT DEAD/H RNA HELICASE, PUTATIVE): 1.1 | fold change (vs vehicle control, protein TB427.10.1510 NOT1): 0.9 | fold change (vs vehicle control, protein TB427.10.2290 CHAPERONE PROTEIN DNAJ, PUTATIVE): 0.96 | fold change (vs vehicle control, protein TB427.10.8190 T-COMPLEX PROTEIN 1, THETA SUBUNIT, PUTATIVE): 0.91 | fold change (vs vehicle control, protein TB927.10.2100 […] 1-ALPHA): 0.99 | fold change (vs vehicle control, protein TB927.10.540 ATP-DEPENDENT DEAD/H RNA HELICASE, PUTATIVE): 0.95 | fold change (vs vehicle control, protein TB927.2.4930 ESTERASE, PUTATIVE): 0.94 | fold change (vs vehicle control, protein TB927.5.1630 HY[…], CONSERVED): 0.99 | fold change (vs vehicle control, protein TB927.7.2750 PROTEIN KINASE, PUTATIVE): 0.79 | fold change (vs vehicle control, protein TB927.8.4330 SMALL GTP-BINDING PROTEIN RAB11): 1

— PMC6199744, “Development of Chemical Proteomics for the Folateome and Analysis of the Kinetoplastid Folateome” (ACS Infectious Diseases, 2018)
